Experimental data as given in ChEMBL document CHEMBL5346962, “Discovery of Sulanemadlin (ALRN-6924), the First Cell-Permeating, Stabilized α-Helical Peptide in Clinical Development” (J Med Chem, 2023).
pEC50: −log10 of the molar value. Calls of active or inactive are those of the source. The calls are words filed in the database; no cut-off is given here.

Assays:
[1] = Cmax in rat at 10 mg/kg by LC-MS/MS analysis; assay type: ADME, organism-based; set-up: dose 10 mg/kg; settings: in vivo
[2] = AUC (0 to 24 hrs) in tumor of athymic nu/nu mouse xenografted with human SJSA-1 cells at 25 mg/kg, iv measured for 24 hrs by LC-MS-MS analysis; assay type: ADME, organism-based, Neoplasm; set-up: dose 25 mg/kg, time 24 hrs, route iv; settings: in vivo
[3] = Induction of cell cycle arrest in human CD34+ cells assessed as accumulation at S phase at 1 uM incubated for 24 hrs by flow cytometry (reference value: 27.5 +/- 5.8%); assay type: toxicity, cell-based; settings: cd34-positive (myeloid/lymphoid) cell
[4] = AUC (all) in cynomolgous monkey at 10 mg/kg by LC-MS/MS analysis; assay type: ADME, organism-based, Macaca fascicularis; set-up: dose 10 mg/kg; settings: cynomolgus monkey, in vivo
SJSA-1 = experiment: Cytotoxicity against human SJSA-1 cells incubated for 72 hrs in presence of 10% FBS by MTT assay; settings: SJSA-1, 72 h
[5] = Toxicity in rat assessed as NOAEL administered twice weekly for 4 weeks; settings: in vivo
Fibroblast [6] = experiment: Protection against chemotherapy-induced apoptosis in human fibroblast assessed as decrease in caspase-3/7 level preincubated for 16 hrs followed by gemcitabine.HCl addition measured after 32 hrs; assay type: functional, cell-based; settings: dose 4.6-10 µM, time 48.0 hrs
[7] = Half life in cynomolgous monkey at 10 mg/kg by LC-MS/MS analysis; assay type: ADME, organism-based, Macaca fascicularis; settings: cynomolgus monkey, in vivo
[8] = Induction of cell cycle arrest in human CD34+ cells assessed as accumulation at S phase at 0.1 uM incubated for 24 hrs by flow cytometry (reference value: 27.5 +/- 5.8%); assay type: toxicity, cell-based; settings: cd34-positive (myeloid/lymphoid) cell
[9] = Cmax in rat at 5 mg/kg by LC-MS/MS analysis; assay type: ADME, organism-based; set-up: dose 5 mg/kg; settings: in vivo
Fibroblast [10] = experiment: Protection against chemotherapy-induced apoptosis in human fibroblast assessed as decrease in caspase-3/7 level preincubated for 16 hrs followed by actinomycin D addition measured after 32 hrs; assay type: functional, cell-based; settings: dose 4.6-10 µM, time 48.0 hrs
[11] = AUC (all) in rat at 2.5 mg/kg by LC-MS/MS analysis; assay type: ADME, organism-based; set-up: dose 2.5 mg/kg; settings: in vivo
Mus musculus [12] = experiment: Upregulation of p21 expression level in gastrointestinal tract of C57BL/6 mouse at 2.4 mg/kg, iv administered every 8 hrs measured for 16 hrs by immunohistochemical analysis; assay type: functional, organism-based
[13] = Plasma protein binding in rat at 250 uM; assay type: ADME, cell-free; settings: read-out: PPB (converted)
[14] = Half life in mouse at 5 mg/kg by LC-MS/MS analysis; assay type: ADME, organism-based; settings: in vivo
[15] = Clearance in cynomolgous monkey at 5 mg/kg by LC-MS/MS analysis; assay type: ADME, organism-based, Macaca fascicularis; settings: cynomolgus monkey, in vivo
BT-474 [16] = experiment: […] chemotherapy-induced apoptosis in human BT-474 cells assessed as decrease in caspase-3/7 level at 4.6 to 10 uM preincubated for 16 hrs followed by doxorubicin addition measured after 32 hrs; assay type: functional, cell-based; settings: dose 4.6-10 µM, time 48.0 hrs
[17] = Drug uptake in tumor of athymic nu/nu mouse xenografted with human SJSA-1 cells assessed as AUC (0 to 24 hrs) of metabolite ALRN-8714 at 25 mg/kg, iv measured for 24 hrs by LC-MS-MS analysis; assay type: ADME, organism-based, Neoplasm; set-up: dose 25 mg/kg, time 24 hrs, route iv; settings: in vivo
[18] = Half life in cynomolgous monkey at 5 mg/kg by LC-MS/MS analysis; assay type: ADME, organism-based, Macaca fascicularis; settings: cynomolgus monkey, in vivo
BT-474 [19] = experiment: […] chemotherapy-induced apoptosis in human BT-474 cells assessed as decrease in caspase-3/7 level at 4.6 to 10 uM preincubated for 16 hrs followed by docetaxel addition measured after 32 hrs; assay type: functional, cell-based; settings: dose 4.6-10 µM, time 48.0 hrs
Fibroblast [20] = experiment: Protection against apoptosis in human fibroblast assessed as decrease in chemotherapy-induced caspase-3/7 level preincubated for 16 hrs followed by etoposide addition measured after 32 hrs; assay type: functional, cell-based; settings: dose 4.6-10 µM, time 48.0 hrs
MCF7 = experiment: Antitumor activity against human MCF7 cells xenografted in athymic nude BALB/c mouse assessed as upregulation of p53 protein level at 20 mg/kg, iv by immunohistochemical analysis; assay type: functional, organism-based; settings: time <= 48.0 hrs, TDE = time-dependent effect
[21] = Cmax in cynomolgous monkey at 5 mg/kg by LC-MS/MS analysis; assay type: ADME, organism-based, Macaca fascicularis; set-up: dose 5 mg/kg; settings: cynomolgus monkey, in vivo
[22] = AUC (all) in rat at 5 mg/kg by LC-MS/MS analysis; assay type: ADME, organism-based; set-up: dose 5 mg/kg; settings: in vivo
Bone marrow cell = experiment: Downregulation of cPARP expression level in bone marrow cells of C57BL/6 mouse at 2.4 mg/kg, iv administered every 8 hrs measured for 16 hrs by immunohistochemical analysis; assay type: functional, organism-based
[23] = Clearance in rat at 5 mg/kg by LC-MS/MS analysis; assay type: ADME, organism-based; settings: in vivo
[24] = AUC (all) in mouse at 5 mg/kg by LC-MS/MS analysis; assay type: ADME, organism-based; set-up: dose 5 mg/kg; settings: in vivo
NCI-H211 = experiment: Antitumor activity against human NCI-H211 cells xenografted in athymic nu/nu mouse assessed as reduction in tumor volume at 8 mg/kg administered on day 0 to 4 and co-administered 30 mins prior to topotecan on day 1 to 4 followed by topotecan administration on day 5 measured for 90 days; assay type: functional, organism-based; settings: time 90.0 day
Fibroblast [25] = experiment: Protection against chemotherapy-induced apoptosis in human fibroblast assessed as decrease in caspase-3/7 level preincubated for 16 hrs followed by SN-38 addition measured after 32 hrs; assay type: functional, cell-based; settings: dose 4.6-10 µM, time 48.0 hrs
[26] = Clearance in rat at 10 mg/kg by LC-MS/MS analysis; assay type: ADME, organism-based; settings: in vivo
BT-474 [27] = experiment: […] chemotherapy-induced apoptosis in human BT-474 cells assessed as decrease in caspase-3/7 level at 4.6 to 10 uM preincubated for 16 hrs followed by paclitaxel addition measured after 32 hrs; assay type: functional, cell-based; settings: dose 4.6-10 µM, time 48.0 hrs
[28] = Drug excretion in bile-duct cannulated rat assessed as ALRN-8714 metabolite elimination at 10 mg/kg, iv measured for 8 hrs by LC-MS/MS analysis; assay type: ADME, organism-based; settings: in vivo
[29] = Half life in plasma of athymic nu/nu mouse xenografted with human SJSA-1 cells at 25 mg/kg, iv measured for 24 hrs by LC-MS-MS analysis; assay type: ADME, organism-based
Mus musculus [30] = experiment: Protection against topotecan-induced epithelium hypertrophy in gastrointestinal tract of C57BL/6 mouse at 2.4 mg/kg administered on day 0 to 4 and co-administered 30 mins prior to topotecan on day 1 to 4 followed by topotecan administration on day 5 measured on day 9 by H&E staining based analysis; assay type: functional, organism-based; settings: time 9.0 day
[31] = Induction of cell cycle arrest in human CD34+ cells at 1 uM incubated for 24 hrs followed by compound wash-out and addition of fresh-medium containing compounds measured after 24 hrs by flow cytometry; assay type: toxicity, cell-based; settings: cd34-positive (myeloid/lymphoid) cell, 48 h
Fibroblast [32] = experiment: Protection against chemotherapy-induced apoptosis in human fibroblast assessed as decrease in caspase-3/7 level preincubated for 16 hrs followed by doxorubicin addition measured after 32 hrs; assay type: functional, cell-based; settings: dose 4.6-10 µM, time 48.0 hrs
[33] = Plasma protein binding in rat at 2 to 50 uM; assay type: ADME, cell-free; settings: dose 2-50 µM, read-out: PPB (converted)
Mus musculus [34] = experiment: Protection against topotecan-induced neutropenia in C57BL/6 mouse assessed as increase in neutrophil level at 2.4 mg/kg administered on day 0 to 4 and co-administered 30 mins prior to topotecan on day 1 to 4 followed by topotecan administration on day 5 measured on day 7 by CBC analysis relative to control; assay type: functional; settings: time 7 day
MV4-11 = experiment: Antitumor activity against human MV4-11 cells xenografted in athymic nu/nu mouse model of AML assessed as tumor growth inhibition; assay type: functional, cell-based
[35] = Induction of cell cycle arrest in human CD34+ cells assessed as accumulation at S phase at 2.5 uM incubated for 24 hrs by flow cytometry (reference value: 27.5 +/- 5.8%); assay type: toxicity, cell-based; settings: cd34-positive (myeloid/lymphoid) cell

CC(=O)N[C@@H](CC(C)C)C(=O)N[C@H](C(=O)N[C@@H](Cc1ccccc1)C(=O)N[C@]1(C)CCCCCC/C=C/CCC[C@@](C)(C(=O)N[C@@H](C)C(=O)N[C@@H](C)C(=O)N[C@@H](C)C(=O)N[C@@H](C)C(=O)N[C@@H](C)C(=O)N[C@H](C)C(N)=O)NC(=O)[C@H](CC(C)C)NC(=O)[C@H](CCC(N)=O)NC(=O)[C@H](C)NC(=O)[C@H](Cc2c[nH]c3ccccc23)NC(=O)[C@H](Cc2ccc(O)cc2)NC(=O)[C@H](CCC(=O)O)NC1=O)[C@@H](C)O
Cmax [1]: 186 µg/mL
AUC [2]: 1 µg·h/g
Activity [3]: 4.23%
AUC [4]: 1350 µg·h/mL
pEC50 (SJSA-1): 6.52
NOAEL at 672 h [5]: 2.5 mg/kg
Activity (Fibroblast [6]): Dose-Dependent Effect
half-life [7]: 5.5 h
Activity [8]: 21.35%
Cmax [9]: 95.9 µg/mL
Activity (Fibroblast [10]): Dose-Dependent Effect
AUC [11]: 90.5 µg·h/mL
Activity (Mus musculus [12]): Active
fraction unbound at 250 µM [13]: 0.02
half-life [14]: 2.2 h
clearance [15]: 0.0983 mL/min/kg
Activity (BT-474 [16]): inactive
AUC [17]: 128 µg·h/g
half-life [18]: 4.9 h
Activity (BT-474 [19]): inactive
Activity (Fibroblast [20]): Dose-Dependent Effect
Activity (MCF7): Tde
Cmax [21]: 137 µg/mL
AUC [22]: 223 µg·h/mL
Activity (Bone marrow cell): Active
clearance [23]: 0.4 mL/min/kg
AUC [24]: 450 µg·h/mL
Activity (NCI-H211): Active
Activity (Fibroblast [25]): Dose-Dependent Effect
clearance [26]: 0.317 mL/min/kg
Activity (BT-474 [27]): inactive
Drug excretion [28]: Active
half-life [29]: 2.8 h
Activity (Mus musculus [30]): Active
Activity [31]: Non-Toxic
Activity (Fibroblast [32]): Dose-Dependent Effect
fraction unbound at up to 50 µM [33]: 0.08
Activity (Mus musculus [34]): 84%
Activity (MV4-11): Dose-Dependent Effect
Activity [35]: 0.5%
